Measured values published in the supplement of paper PMC10307832.

compound: Cc1ccccc1C(C(=O)NC1CCCCC1)N(C(=O)Cn1ccnc1C)c1cccc(F)c1 [IDH-C35] + O=C(CCCCCCC(=O)Nc1ccccc1)NO [Vorinostat] (partner 1 µM); assay: relative viability (nuclei count vs DMSO), 5 days (fraction); higher = more cells survive; conditions: first compound 8 µM
How it was run: (§1)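 One day after seeding in 1536-well plates, lung cancer cell lines were dosed by pin tool. Dosing was either single-drug or a fixed anchor-drug dose plus five library-drug doses (not always all listed) in √10 steps. After 5 days, nuclei were stained in one fix-and-stain step and counted on 4× images, and relative viability is the nuclei count of treated wells over that of vehicle wells, given as the median of duplicate plates.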

| Cell Line | relative viability |
| --- | --- |
| NCI-H1666 | 0.971 |
| NCI-H596 | 0.604 |
| LK-2 | 0.165 |
| NCI-H2087 | 0.633 |
| NCI-H2342 | 0.806 |
| SK-MES-1 | 1.02 |
| IA-LM | 1.05 |
| NCI-H2170 | 0.85 |
| HCC-44 | 1.11 |
| SW 900 | 0.529 |
| NCI-H1648 | 0.525 |
| NCI-H1395 | 0.766 |
| NCI-H1793 | 0.881 |
| NCI-H1944 | 0.566 |
| ABC-1 | 1.3 |
| NCI-H358 | 0.611 |

compound: Cc1ccccc1C(C(=O)NC1CCCCC1)N(C(=O)Cn1ccnc1C)c1cccc(F)c1 [IDH-C35] + CC(C)C[C@H](NC(=O)[C@H](Cc1ccccc1)NC(=O)c1cnccn1)B(O)O [Bortezomib] (partner 0.002 µM); assay: as above; conditions: first compound 0.08 µM
How it was run: as §1

| Cell Line | relative viability |
| --- | --- |
| NCI-H727 | 0.891 |
| NCI-H1650 | 0.227 |
| EBC-1 | 0.544 |
| NCI-H1703 | 0.326 |
| NCI-H1993 | 1.07 |
| SW 1573 | 1.06 |
| NCI-H838 | 1.06 |
| LCLC-103H | 1.09 |
| NCI-H520 | 0.759 |
| NCI-H2126 | 1.14 |
| EMC-BAC-2 | 1.01 |
| NCI-H2085 | 1.02 |
| Calu-6 | 0.971 |
| HCC-366 | 1.07 |
| NCI-H1666 | 0.769 |
| NCI-H596 | 1.02 |
| NCI-H2087 | 0.846 |
| IA-LM | 0.855 |
| HCC-44 | 0.899 |
| NCI-H1299 | 1.02 |
| NCI-H1792 | 0.921 |
| NCI-H1563 | 0.854 |
| ABC-1 | 0.391 |

same assay, conditions: first compound 0.253 µM

| Cell Line | relative viability |
| --- | --- |
| NCI-H727 | 0.896 |
| NCI-H1650 | 0.205 |
| EBC-1 | 0.575 |
| NCI-H1703 | 0.346 |
| NCI-H1993 | 1.03 |
| SW 1573 | 1.19 |
| NCI-H838 | 0.758 |
| LCLC-103H | 1.14 |
| NCI-H520 | 0.344 |
| NCI-H2126 | 1.12 |
| EMC-BAC-2 | 1.08 |
| NCI-H2085 | 1.05 |
| Calu-6 | 1 |
| HCC-366 | 1.01 |
| NCI-H1666 | 0.881 |
| NCI-H596 | 0.998 |
| NCI-H2087 | 0.959 |
| IA-LM | 0.87 |
| HCC-44 | 0.934 |
| NCI-H1299 | 1.01 |
| NCI-H1792 | 0.906 |
| NCI-H1563 | 0.937 |
| ABC-1 | 0.306 |

same assay, conditions: first compound 0.8 µM

| Cell Line | relative viability |
| --- | --- |
| NCI-H727 | 0.801 |
| NCI-H1650 | 0.229 |
| EBC-1 | 0.493 |
| NCI-H1703 | 0.422 |
| NCI-H1993 | 1.16 |
| SW 1573 | 0.967 |
| NCI-H838 | 0.668 |
| LCLC-103H | 1.07 |
| NCI-H520 | 0.636 |
| NCI-H2126 | 1.15 |
| EMC-BAC-2 | 1.13 |
| NCI-H2085 | 0.981 |
| Calu-6 | 1.04 |
| HCC-366 | 1.06 |
| NCI-H1666 | 0.914 |
| NCI-H596 | 1.2 |
| NCI-H2087 | 0.805 |
| IA-LM | 0.844 |
| HCC-44 | 0.88 |
| NCI-H1299 | 1.03 |
| NCI-H1792 | 0.95 |
| NCI-H1563 | 0.844 |
| ABC-1 | 0.299 |

same assay, conditions: first compound 2.53 µM

| Cell Line | relative viability |
| --- | --- |
| NCI-H727 | 0.782 |
| NCI-H1650 | 0.213 |
| EBC-1 | 0.613 |
| NCI-H1703 | 0.43 |
| NCI-H1993 | 1.19 |
| SW 1573 | 1.06 |
| NCI-H838 | 1.1 |
| LCLC-103H | 0.98 |
| NCI-H520 | 0.731 |
| NCI-H2126 | 1.09 |
| EMC-BAC-2 | 1.09 |
| NCI-H2085 | 0.982 |
| Calu-6 | 1.07 |
| HCC-366 | 0.987 |
| NCI-H1666 | 0.872 |
| NCI-H596 | 1.2 |
| NCI-H2087 | 0.863 |
| IA-LM | 0.924 |
| HCC-44 | 0.86 |
| NCI-H1299 | 0.964 |
| NCI-H1792 | 0.909 |
| NCI-H1563 | 0.909 |
| ABC-1 | 0.339 |

same assay, conditions: first compound 8 µM

| Cell Line | relative viability |
| --- | --- |
| NCI-H727 | 0.94 |
| NCI-H1650 | 0.213 |
| EBC-1 | 0.506 |
| NCI-H1703 | 0.261 |
| NCI-H1993 | 1.24 |
| SW 1573 | 1.05 |
| NCI-H838 | 1.08 |
| LCLC-103H | 0.973 |
| NCI-H520 | 0.756 |
| NCI-H2126 | 1.07 |
| EMC-BAC-2 | 1.11 |
| NCI-H2085 | 0.871 |
| Calu-6 | 0.955 |
| HCC-366 | 0.979 |
| NCI-H1666 | 0.691 |
| NCI-H596 | 0.999 |
| NCI-H2087 | 0.654 |
| IA-LM | 0.769 |
| HCC-44 | 0.843 |
| NCI-H1299 | 1.03 |
| NCI-H1792 | 0.983 |
| NCI-H1563 | 0.757 |
| ABC-1 | 0.362 |
